According to US10905654B2, “Compositions of bakuchiol and methods of making the same” (Unigen, Inc., priority 2005, dated 2021):

What was measured:
COX-1 versus COX-2 = settings: COX-1 selective inhibitor; cited from earlier work
COX-1 = COX-1 (Homo sapiens, UniProt P23219); test: COX-1 inhibition, peroxidase activity assay; type: biochemical; settings: 99% bakuchiol sample, IC50 normalized to enzyme units
Excerpt: In order to screen for compounds that inhibited COX-1 and COX-2 activity, a high throughput, in vitro assay was developed that utilized the inhibition of the peroxidase activity of both enzymes. (Needleman et al. (1986) Annu Rev Biochem. 55:69). Briefly, the composition or compound being examined was titrated against a fixed amount of COX-1 and COX-2 enzymes. A cleavable, peroxide chromophore was included in the assay to visualize the peroxidase activity of each enzyme in presence of arachidonic acid as a cofactor. Typically, assays were performed in a 96-well format. Each inhibitor, taken from a 10 mg/mL stock solution in 100% DMSO, was tested in triplicate at room temperature using the following range of concentrations: 0, 0.1, 1, 5, 10, 20, 50, 100, and 500 μg/mL. To each well, 150 μL of 100 mM Tris-HCl, pH 7.5 was added along with 10 μL of 22 μM Hematin diluted in tris buffer, 10 μL of inhibitor diluted in DMSO and 25 units of either the COX-1 or COX-2 enzyme. […] The plate was shaken for 10 seconds and then incubated 5 minutes before reading the absorbance at 570 nm. The inhibitor concentration vs. % inhibition was plotted and the IC50 determined by taking the half-maximal point along the isotherm and intersecting the concentration on the X-axis. […]

[1] = molecular target: T1, human 5-lipoxygenase (5-LO or 5-LOX) (Homo sapiens, UniProt P09917); test: Lipoxygenase Inhibition Assay (LTB4 formation, EIA); type: biochemical; settings: 99% bakuchiol; 5-LOX from human PBML cells, arachidonic acid substrate
T1 construct: 5-LOX was isolated from human PBML cells; endogenous in cells; host or cells: human PBML cells (peripheral blood mononuclear leukocytes)
T1 sequence (P09917 1-674): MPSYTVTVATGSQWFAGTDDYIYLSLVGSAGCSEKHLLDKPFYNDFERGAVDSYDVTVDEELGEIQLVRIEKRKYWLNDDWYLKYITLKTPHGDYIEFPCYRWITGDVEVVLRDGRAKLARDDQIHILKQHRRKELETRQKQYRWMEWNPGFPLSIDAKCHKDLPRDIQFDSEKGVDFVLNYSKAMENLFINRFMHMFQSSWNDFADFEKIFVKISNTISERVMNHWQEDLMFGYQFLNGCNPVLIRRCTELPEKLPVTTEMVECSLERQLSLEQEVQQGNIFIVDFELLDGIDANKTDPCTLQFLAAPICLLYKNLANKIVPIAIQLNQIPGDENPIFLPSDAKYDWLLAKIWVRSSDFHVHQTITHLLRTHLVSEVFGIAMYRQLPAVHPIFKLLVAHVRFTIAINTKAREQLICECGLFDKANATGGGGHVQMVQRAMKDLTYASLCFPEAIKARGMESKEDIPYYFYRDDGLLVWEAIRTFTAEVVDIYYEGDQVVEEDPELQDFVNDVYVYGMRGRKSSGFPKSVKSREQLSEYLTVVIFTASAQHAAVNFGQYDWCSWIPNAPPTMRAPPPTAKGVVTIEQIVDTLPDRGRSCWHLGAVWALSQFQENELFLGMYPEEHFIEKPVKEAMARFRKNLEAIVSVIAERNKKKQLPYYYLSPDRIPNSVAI
Experimental: As noted above, one of the most important pathways involved in the inflammatory response is produced by non-heme, iron-containing lipoxygenases (5-LOX, 12-LOX, and 15-LOX), which catalyze the oxidation of fatty acids such as AA to produce the hydroperoxides 5-, 12- and 15-HPETE, which are then converted to leukotrienes. A Lipoxygenase Inhibition Assay was carried out using a published method (Carter et al. (1991) J. Pharmacol. Exp. Ther. 256(3):929-937, Safayhi et al. (2000) Planta Medica. 66:110-113). 5-LOX was isolated from human PBML cells and arachidonic acid was utilized as a substrate. The test article and positive control were dissolved in 1% DMSO. HBSS (Hank's balanced salt solution) was used as incubation buffer. Pre-incubation time was 15 minutes at 37° C., followed by 15 min. incubation at the same temperature. This assay detects the formation of LTB4 with EIA quantification. Highly pure bakuchiol (99% bakuchiol, #MH-258-12-08) was tested in duplicate at concentrations of 10 μM, 1 μM, 0.1 μM, and 10 nM relative to a positive control-NDGA at five concentrations. The dose response curve is illustrated in the FIG. 6.

[2] = test system: Propionibacterium acnes (ATCC 6919); test: Antimicrobial activity, turbidity; type: cell-based; settings: 99% pure sample, tested at 0.03-100 μg/mL, 1 day
Experimental: (§1) The anti-microbial activity of a highly pure bakuchiol sample (99% pure; #MH-258-12-08) was evaluated using published methods (Modugno et al. (1994) Antimicrobial Agents & Chemotherapy 38:2362-2368; Misiek et al. (1973) Antimicrobial Agents & Chemotherapy 3:40-48). Briefly, Staphylococcus epidermidis (Gram Positive. ATCC 12228) was cultured for 20 hours at 37° C. in Mueller-Hinton Broth medium. Propionibacterium acnes (ATCC 6919) was cultured for 2 days at 37° C. in Reinforced Clostridial medium. The test article and positive control were dissolved in 1% DMSO with an incubation volume of 1 mL. The time of assessment was 1 day. Measurement of turbidity was used as the method of quantification. A highly pure bakuchiol sample (99%; #MH-258-12-08) was tested in duplicate at concentrations of 100 μg/mL, 30 μg/mL, 10 μg/mL, 3 μg/mL, 1 μg/mL, 0.3 μg/mL, 0.1 μg/mL and 0.03 μg/mL relative to positive controls-gentamicin at 0.1 μg/mL for Staphylococcus epidermidis and ampicillin at 0.1 μg/mL for Propionibacterium acnes, respectively.

[3] = test system: Staphylococcus epidermidis (Gram Positive, ATCC 12228); test: Antimicrobial activity, turbidity; type: cell-based; settings: 99% pure sample, tested at 0.03-100 μg/mL, 1 day
Experimental: as §1

[4] = test system: Trichophyton mentagrophytes (ATCC 9533); test: Antimicrobial activity; type: cell-based; settings: 99% pure sample; tested at 0.03-100 μg/mL
[5] = test system: Epidermophyton floccosum (ATCC 18397); test: Antimicrobial activity; type: cell-based; settings: 99% pure sample, tested at 0.03-100 μg/mL
[6] = test system: Microsporum canis (ATCC 36299); test: Antimicrobial activity; type: cell-based; settings: 99% pure sample, tested at 0.03-100 μg/mL
[7] = test system: Pityrosporum ovale (ATCC 38593); test: Antimicrobial activity; type: cell-based; settings: 99% pure sample, tested at 0.03-100 μg/mL
[8] = Acute toxicity, 14-day study in mice; type: in vivo, female ICR mice
Experimental: […] Forty female ICR mice (Harlan) aged 4-5 weeks old were used for the 14-day study. Mice were administered […] of the acute dose daily, approximately 2 g/kg by weight per test article per day. The first 10 mice received the composition containing 20.7% bakuchiol, while the second group of 10 mice received a composition containing 99% bakuchiol. The UP256 composition was suspended in water and administered through a syringe. Twenty mice were administered water, as the control group. The weights of all mice were measured, including baseline, 3 mid points, and an endpoint. […] Any abnormal health conditions or behavior was recorded over the two-week period. A necropsy of all mice was completed on day 14 and blood from all groups was collected for a complete blood screen. Two mice picked randomly from each of groups also had kidney and liver tissues removed for Histopathology. All blood work and pathology work was completed through Antech Diagnostics.

PTPIB = molecular target: T2, PTPIB (Homo sapiens, UniProt P18031); settings: Kim et al. 2005; cited from earlier work
T2 sequence (P18031 1-435): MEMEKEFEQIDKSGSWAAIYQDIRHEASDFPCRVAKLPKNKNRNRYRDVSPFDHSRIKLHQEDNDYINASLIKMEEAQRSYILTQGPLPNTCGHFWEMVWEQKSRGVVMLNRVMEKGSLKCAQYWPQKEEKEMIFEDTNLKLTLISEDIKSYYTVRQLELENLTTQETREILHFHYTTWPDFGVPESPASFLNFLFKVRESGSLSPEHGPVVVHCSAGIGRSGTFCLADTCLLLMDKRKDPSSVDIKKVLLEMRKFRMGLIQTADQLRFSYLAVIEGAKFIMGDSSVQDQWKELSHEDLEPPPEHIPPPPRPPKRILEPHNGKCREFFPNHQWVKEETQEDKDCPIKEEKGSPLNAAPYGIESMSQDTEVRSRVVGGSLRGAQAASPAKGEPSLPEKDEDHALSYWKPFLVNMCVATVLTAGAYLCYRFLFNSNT

[9] = 20.7% and 99% bakuchiol samples, approximately 2 g/kg per day, 14 days
[10] = UP256 at concentrations of 30% and 70%, oral daily 2 g/kg for 14 days
[11] = day 14, 20.7% and 99% bakuchiol samples, approximately 2 g/kg per day
[12] = two mice per group, approximately 2 g/kg per day, 14 days

COX-1, sequence (P23219 24-599): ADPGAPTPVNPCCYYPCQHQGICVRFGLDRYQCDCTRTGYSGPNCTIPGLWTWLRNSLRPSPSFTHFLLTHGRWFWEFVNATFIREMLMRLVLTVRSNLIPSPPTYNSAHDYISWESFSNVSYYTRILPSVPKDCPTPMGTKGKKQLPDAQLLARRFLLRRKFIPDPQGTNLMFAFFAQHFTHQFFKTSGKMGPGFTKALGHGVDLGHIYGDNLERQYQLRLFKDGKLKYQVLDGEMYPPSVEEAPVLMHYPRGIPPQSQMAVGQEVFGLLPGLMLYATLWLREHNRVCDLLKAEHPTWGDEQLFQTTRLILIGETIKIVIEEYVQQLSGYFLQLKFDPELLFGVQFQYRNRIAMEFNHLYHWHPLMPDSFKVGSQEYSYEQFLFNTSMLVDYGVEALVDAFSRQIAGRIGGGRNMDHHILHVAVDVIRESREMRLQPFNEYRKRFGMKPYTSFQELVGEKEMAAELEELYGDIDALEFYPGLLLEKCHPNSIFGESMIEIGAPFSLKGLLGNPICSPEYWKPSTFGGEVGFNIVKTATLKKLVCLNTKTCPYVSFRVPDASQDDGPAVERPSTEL

With CC(=O)Oc1ccccc1C(=O)O [aspirin] as the compound, how does the “effectiveness against COX-1 versus COX-2” value (COX-1 versus COX-2) read?
The value was “more than 150 times”.

Which results are given for C=C[C@@](C)(/C=C/c1ccc(O)cc1)CCC=C(C)C [UP256, bakuchiol]?
IC50 (COX-1): 2.34 µM; IC50 [1]: 3.41 µM; minimum effective concentration (significant inhibition) [2]: 1 µg/mL; minimum effective concentration (significant inhibition) [3]: 1 µg/mL; concentration of moderate inhibition [4]: 30 µg/mL; inhibition [5]: No inhibition; inhibition ([5]; listed as bakuchiol): no inhibition; inhibition [6]: No inhibition; inhibition ([6]; listed as bakuchiol): no inhibition; inhibition [7]: No inhibition; inhibition ([7]; listed as bakuchiol): no inhibition; average weight [8, 9]: continued to increase; food/water consumption [8, 9]: remained the same; significant difference in behavior versus control mice [8, 9]: Aggression towards the investigator (i.e. biting) and towards each other (i.e. fighting in cage); adverse effects, fourteen-day study [8, 10]: No adverse effects; toxicity in major organs tested [8, 10]: no toxicity; adverse effects, fourteen-day study ([8]; both purity levels (20% and 99% purity), approximately 2 g/kg per day): No adverse effects; blood work [8, 11]: normal relative to the controls; necropsy [8, 11]: no gross abnormalities or changes in any organ; histopathology, kidney [8, 12]: significant changes were not present; histopathology, liver hepatocyte nuclei [8, 12]: within normal limits; IC50 (PTPIB): 20.8 µM; logP (physchem): 6.13
